The test system of this series is HepaRG cells. The series is described as follows: HepaRG cellular metabolic stability. The note with it: for HepaRG t1/2: after 3 h loading at 20 μM, 37 °C.

This is an account of results in paper PMC11513920, “Building Metabolically Stable and Potent Anti-HIV Thioether-Lipid Analogues of Tenofovir Exalidex: A thorough Pharmacological Analysis” (Journal of Medicinal Chemistry, 2024).

Text: Naturally, due the metabolic complexity of HepaRG cells, we specifically analyzed prodrug cellular uptake and stability, as represented by Cmax and intrinsic clearance (Clint,u) accordingly (Figure 7 and Table 9).
The HepaRG cell line (HPRGC10, Thermo Fisher Scientific) was used to evaluate the cellular permeability and metabolic stability for select final compounds in vitro. The cells were initially thawed with working media composed of HepaRG Thaw, Plate, & General Purpose Medium Supplement (HPRG670), Williams Medium E (100 mL), and GlutaMax (1 mL), all purchased from Thermo Fisher Scientific. […] After the thawing medium was aspirated from each well, the cells were cultured for an additional 6 days with working media consisting of HepaRG Maintenance/Metabolism Medium Supplement (HPRG720), Williams Medium E (500 mL), and GlutaMax (1 mL), all purchased from Thermo Fisher Scientific. Upon completing the 7-day culture period, HepaRG cells were plated in enough wells to allow for duplicate analysis of prodrugs in two independent cellular uptake or metabolic stability experiments. All studied compounds were formulated with human serum albumin (HSA, 5:1 compound to HSA molar ratio) and subsequently diluted to a 20 μM final concentration with assay medium composed of serum-free INVITROGRO HI Medium and TORPEDO Antibiotic Mix purchased from BioIVT. For cellular uptake determinations, the maintenance/metabolism medium was first aspirated from each well, and then the plated cells were spiked with 1.0 mL of test compound stock solution. Subsequently, the plate was incubated at 37 °C under 5% CO2 environment over the desired time course (seven data points/compound). Blank wells not treated with prodrug were included in assay runs as controls and initial time points (0 min). At each time point, the test compound solution was removed from the appropriate wells, and the plated cells were washed with 1.0 mL of DPBS twice. The HepaRG cells were then extracted with 500 μL of cold ISTD solution (1 μM 7-ethoxy-d5-coumarin in 70/30 MeOH/H2O), and the quenched aliquots were centrifuged at 15,000 g for 10 min at 4 °C. […] After obtaining prodrug Cmax and Tmax values from the cellular uptake assay, HepaRG metabolic stability was then assessed. Following the initial 7-day culture procedure, the maintenance/metabolism medium was aspirated from each well, and the plated cells were spiked with 1.0 mL of test compound stock solution. […] The test compound solution was then removed from each well and replaced with untreated dilution medium (i.e., serum-free INVITROGRO HI Medium and TORPEDO Antibiotic Mix), initializing the stability determination. The HepaRG plate was once more incubated at 37 °C under 5% CO2 atmosphere over the desired time course (nine data points/compound), and sample preparation and analysis were handled in identical fashion to cellular uptake experiments.

With `C[C@H](Cn1cnc2c(N)ncnc21)OCP(=O)(O)OCCCSCCCCCCCCCCCCc1ccc(F)cc1.N` [16g], the “HepaRG t1/2” value is 46.7 ± 0.3 min. With `C[C@H](Cn1cnc2c(N)ncnc21)OCP(=O)(O)OCCCSCCCCCCCCCCCCC1CCCCC1.N` [16h], the “HepaRG t1/2” value is 71.0 ± 0.4 min. Also, the “HepaRG Clint,u” value (calculated from cellular t1/2) is 17.8 μL/min/million cells.
